# Measured values reported in patent publication US20210386783A1, “USE OF GLUCOSYLCERAMIDE SYNTHASE GENE-DEFICIENT T CELL AND THERAPEUTIC UTILIZATION THEREOF” (SCHOOL CORPORATION, AZABU VETERINARY MEDICINE EDUCATIONAL …, priority 2018, published 2021).
# What was measured:
# UGCG = target: T1, UGCG (Mus musculus, UniProt O88693); test: Expression level of ganglioside GM3 in isolated T cells after in vitro PPMP treatment (flow cytometer); assay type: cell-based; settings: isolated mouse spleen T cells, PPMP 0, 1, 5 and 10 μM for 24 hours
# T1 construct: endogenous in cells; host or cells: primary T cells isolated from mouse spleen
# T1 sequence (O88693 1-394): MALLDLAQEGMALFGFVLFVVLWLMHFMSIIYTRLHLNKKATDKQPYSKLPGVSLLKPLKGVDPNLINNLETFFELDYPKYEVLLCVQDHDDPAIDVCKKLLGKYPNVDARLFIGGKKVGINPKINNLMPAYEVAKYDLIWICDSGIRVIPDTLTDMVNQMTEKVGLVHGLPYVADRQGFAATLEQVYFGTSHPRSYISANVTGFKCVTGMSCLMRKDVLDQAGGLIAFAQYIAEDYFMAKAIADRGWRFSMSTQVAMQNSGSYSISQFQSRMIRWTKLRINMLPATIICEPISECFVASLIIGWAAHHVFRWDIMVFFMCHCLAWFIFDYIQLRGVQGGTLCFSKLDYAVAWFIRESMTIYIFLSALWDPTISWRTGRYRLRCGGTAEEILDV
# Procedure: (§1) The isolated T cells were treated with PPMP in concentrations of 0, 1, 5 and 10 μM for 24 hours, and then measuring the expression level of GM3 (left view) and the proliferation rate of the cells (right view).
# (§2) Using Dynabeads Untouched Mouse T Cells kit (Thermo fisher Scientific), T cells were isolated from the excised spleen, and the T cells were then activated by IL-2 (30 U/mL) and Dynabeads Mouse T-Cell activator CD3-CD28 (Thermo fisher Scientific). Thereafter, the T cells were recovered over time, and the expression of a PD-1 gene was then analyzed by qPCR. With regard to the proliferation rate of the T cells after the activation, the proliferation rate was increased in the cells derived from the T cell-specific UGCG gene-deficient mice (FIG. 7A).
# (§3) The T cells were isolated in the same manner as that of the above 3, and the isolated T cells were then treated with PPMP used as a UGCG inhibitor in various concentrations for 24 hours. Thereafter, the expression level of ganglioside GM3 was analyzed using a flow cytometer. […] Moreover, in order to examine the toxicity of the PPMP treatment on T cells, the proliferation rate of the T cells was measured using a cell proliferation/cytotoxicity assay kit (CK-1, Dojindo).
# T cells = test: Proliferation rate / toxicity of PPMP treatment on T cells (cell proliferation/cytotoxicity assay kit CK-1, Dojindo); assay type: cell-based, mouse; settings: isolated T cells
# Procedure: as §1, §2, §3
# neuroblastoma cell line = settings: combination with fenretinide; cited from earlier work
# [1] = system: acute leukemia-derived cell line ALL; settings: combination with fenretinide; cited from earlier work
compound,measurement,setting,value
"CCCCCCCCCCCCCCCC(=O)NC(CN1CCOCC1)C(O)c1ccccc1 (centres unmarked) [PPMP, 1-phenyl-2-hexadecanoylamino-3-morpholino-1-propanol]",expression level of ganglioside GM3,UGCG,reduced in a PPMP concentration-dependent manner
same,proliferation rate of the T cells,"T cells; PPMP 0, 1, 5 and 10 μM for 24 hours, concentration range of reducing glycolipids",did not influence on the proliferation rate
same,toxicity of PPMP on the cells,T cells; PPMP treatment for 24 hours,low
same,effect on cytotoxicity of fenretinide (4-HPR),neuroblastoma cell line,synergistically enhances the cytotoxicity
same,effect on cytotoxicity of fenretinide (4-HPR),[1],synergistically enhances the cytotoxicity
